In patent US20020155172A1, “Methods and compounds for decreasing cell toxicity or death” (priority 2000, published 2002):
Peptide text beside a SMILES is read from it. * marks the point of attachment. Cbz = O=C(OCc1ccccc1)*; CH2F = FC*

Experiments:
Assay type in all cases: cell-based
[1] = test system: Q79 transiently transfected HeLa cells; experiment: Cell protective effects by ATP depletion tests and luciferase activity analysis; conditions: 5 μM or 25μM of the test compound
Experimental: (§1) A high-throughput method for identifying compounds that decrease cell toxicity or death has been designed. In this method, cells were seeded at 2×10^5 cells in 100 mm dishes. The next day the plated cells were transiently transfected with a plasmid encoding an expanded polyglutamine repeat, for example, Q79. Three hours later, transfection efficiency was assessed. Plates containing cells having 10-20% transfection efficiency at this 3 hour time point were trypsinized and re-plated at 600 or at 1500 cells per well in 384 well plates with clear bottoms. After 6 hours, the candidate compounds were added to the multi-well plates. The cells were cultured for 48 hours and ATP levels were determined using an ATPLite™ kit. Data was then expressed in either arbitrary units, or as relative ratio of ATP levels in Q79 transfected cells in compound-treated relative to vehicle-treated samples.
The structures and ChemBridge library product numbers for the compounds that tested positively in the ATP depletion assays and luciferase assays are shown in FIGS. 14A-14L. In addition, derivatives of some of the identified compounds, as shown in FIGS. 14A-14F, were identified and tested for their cell protective effects, as assayed by ATP depletion tests and luciferase activity analysis after administration of Q79 transiently transfected HeLa cells with 5 μM or 25μM of the test compound. […]

[2] = test system: HeLa cells transfected with Q79-GFP; experiment: Cellular ATP levels (ATPLite) in Q79 expressing HeLa cells; conditions: Q79-GFP, assayed 48 hours after transfection
Experimental: We also investigated whether Congo red prevented other cellular events during cell death, including ATP depletion, caspase activation, and protein synthesis inhibition. HeLa cells were transfected with the Q79-GFP construct. Forty-eight hours later, the viability of cells expressing expanded polyglutamine repeats was determined by measuring cellular ATP levels, suing an ATPLite™ kit, according to the directions provided by the manufacturer (Packard, Co.) (FIG. 5A).
To determine the effect of Congo red (100 μM) on polyglutamine-induced cell toxicity. HeLa cells were transiently transfected with Q79-GFP, and six hours later were administered various concentrations of Congo red. Cell viability was assayed 72 hours after transfection, by measuring the level of ATP in each sample. ATP levels in cells expressing Q79 were determined by using the ATPLite™ kit as recommended by the manufacturer (Packard, Inc.). Briefly, cells were transfected with Q79 and treated 6 hours after transfection. Forty-two hours later, the levels of ATP were determined. (FIG. 5C).
as §1
Derivatives of Congo red (commercially available from Sigma/Aldrich) were tested for their ability to alter cell toxicity and death by measuring ATP depletion and luciferase expression. The assay was carried out as described above for the high-throughput identification of compounds. Briefly, HeLa cells were transiently transfected with a Q79/GFP plasmid and were subsequently treated with various concentrations of Congo red, or 25 μM of each of Direct Orange 6, Direct Red 1, Direct Orange 1, Direct Black 51, Direct Orange 8, Direct Yellow 26, Direct Yellow 28, or Direct Blue 158. Drug treatment continued for 6 hours and then 48 hours later, ATP levels were measured in these cells and compared to the ATP levels in cells that were transiently transfected with GFP only, and also received the compound.

[3] = test system: HeLa cells expressing Q79 expanded polyglutamine repeats; experiment: Cell death induced by TNF-α/CHX, Fas/CHX or H2O2; conditions: 100 μM, one hour before the inducing agent; cell death 48 hours later
Experimental: FIG. 5F is a graph of the effects of Congo red, ZVAD, or vehicle (NT) on cell death when the cells are induced to die by receptor mediated pathways (TNF-α/cycloheximide (CHX), Fas/cycloheximide (CHX)), or necrosis (hydrogen peroxide).
HeLa cells expressing Q79 expanded polyglutamine repeats were treated with 100 μM Congo red, or 100 μM ZVAD (a positive control) for one hour prior to the addition of the apoptosis-inducing agent, and cell death was determined 48 hours later. […] Finally we tested whether Congo red can inhibit apoptosis induced by overexpression of caspase-1, -8, or -11.

[4] = test system: non-transfected HeLa cells; experiment: Total cellular protein degradation; conditions: Congo red 100 μM, ZVAD 100 μM, MG132 10 μM; H3-tyrosine release, 0 to 180 minutes
Experimental: FIG. 8C is a graph of the effect of effect of Congo red, ZVAD, or the proteosome inhibitor MG132 on total cellular protein degradation in non-transfected HeLa cells.
To rule out the possibility that Congo red may have an effect on protein degradation in general, we tested the effect of Congo red on proteosome degradation. Rates of total cellular protein degradation experiments, from cells seeded in 12 well dishes at 2×10^4, treated with Congo red (100 μM), ZVAD (100 μM), or the proteosome inhibitor MG132 (10 μM) and labeled with 5 μCi/ml of H^3-tyrosine for 1 hour. One hundred microliter culture medium aliquots were collected at 0, 30, 60, 90, 120, and 180 minute time points, and the levels of H^3-tyrosine were determined using an LS6000 scintillation counter (Beckman, Co).

CC(=O)Nc1ccc(-c2ccc(NC(C)=O)cc2)cc1 [PQIG]
cell protective effect (ATP depletion tests and luciferase activity analysis) [1]: cytoprotective

C/C(=N\NC(=S)N1CCCCC1)c1ccccc1 [PQIB]
cell protective effect (ATP depletion tests and luciferase activity analysis) [1]: cytoprotective

COC(=O)C[C@H](NC(=O)[C@H](C)NC(=O)[C@@H](NC(=O)OCc1ccccc1)C(C)C)C(=O)CF [ZVAD, reference compound] (Cbz-Val-Ala-Asp(OMe)-CH2F)
ATP depletion upon expanded polyglutamine expression [2]: inhibited
cell death induced by TNF-α/CHX, Fas/CHX, or H2O2 [3]: effective in inhibiting both TNF-α- and Fas-induced apoptosis
general protein degradation [4]: neither Congo red nor ZVAD had any effect
